Source: patent US8637664B2, “Alkyl 4- [4- (5-oxo-2,3,5, 11a-tetrahydo-5H-pyrrolo [2, 1-c] [1,4] benzodiazepine-8-yloxy)-butyrylamino]-1H-pyrrole-2-carboxylate derivatives and related compounds for the treatment of a proliferative disease” (Spirogen SARL, priority 2005, dated 2014)
Like-named read-outs stand apart in the source and are kept apart here.

Columns and labels:
[1] = target: 262 bp DNA fragment (MS2F or MS2R) of MS2 plasmid; assay: DNase I footprinting on MS2 DNA fragment; format: binding
Procedure: The sequence selectivity of the six PBD-pyrrole conjugates (21, 23, 25, 27, 29) was evaluated by standard DNA footprinting on a fragment of MS2 as follows, in accordance with the technique described in Martin, C., et al., (Martin, C., et al., Biochemistry, 44(11), 4135-4147 (2005))
Forward (5′-[…]-3′) or reverse (5′-[…]-3′) primer was 5′-end labelled with ^32P by T4 polynucleotide kinase. Labelling mixture contained primer (5 pmol; Sigma-Genosys), 10× kinase buffer (1 μl; Promega), (γ-^32P)-ATP (2μ of 10 μCi/μl, 6000 Ci/mmol; Perkin Elmer Life Sciences), and T4 polynucleotide kinase (10 U; Promega) in a 10 μl final volume. Labelling mix was incubated at 37° C. for 30 minutes followed by inactivation of the kinase at 70° C. for 10 minutes. A 262 bp DNA fragment (MS2F or MS2R) was amplified from the MS2 plasmid using PCR with either labelled forward or reverse primer and the unlabelled primer as required. Reactions were comprised of labelled primer mix (10 μl), 10×PCR buffer (5 μl; Sigma), dNTPs (5 μl; 2.5 mM each of A, C, G and T, Amersham Pharmacia), unlabelled primer as required ([…]), MS2 plasmid template DNA (10 ng) and Taq DNA polymerase (5 U; Sigma) in a 50 μl final volume. Radiolabelled 262-mer was purified by non-denaturing polyacrylamide gel electrophoresis, elution, filtration and EtOH precipitation and was resuspended in a solution of Tris-HCl (10 mM) pH 7.4/NaCl (10 mM) to yield an activity of 200 counts per second per 5 μl when held up, in a pipette tip, to a capped Morgan series 900 mini-monitor.
For DNase I footprinting radiolabelled 262-mer (2 μl) was incubated overnight (16-18 h) with drug solution (388 μl) or in an aqueous buffer [HEPES (20 mM) pH 7.9, NaCl (50 mM), MgCl2 (1 mM), DTT (5 mM), 10% glycerol] in control reactions. Enzymatic cleavage was initiated by addition of DNase I solution (10 μl of 0.05 U/ml; Sigma) in aqueous NaCl (200 mM), MgCl2 (20 mM) and MnCl2 (20 mM) and halted with stop solution [40 μl of NaCl (2.25 M), EDTA (150 mM) pH 8.0, 0.57 μg/μl glycogen (0.57 μg/μl; Roche), poly(dl-dC).poly(dl-dC) DNA (19.3 ng/μl; Amersham Pharmacia)]. From this mixture, digested DNA fragments were prepared for electrophoresis following the protocol of Trauger & Dervan, and were loaded on to a preheated 8% denaturing polyacrylamide gel. Electrophoresis in 1×TBE buffer was allowed to proceed for 100 min at 70 W (1600-2000 V). The gel was the fixed in acetic acid (10% v/v) and methanol (10% v/v) for 15 minutes followed by being blotted onto Whatman 3 mM paper and vacuum-dried at 80° C. for 45 minutes.
Dried gels were stored at room temperature in phosphor storage screens (Molecular Dynamics) for a minimum period of 12 h. Data were collected from exposed screens using a Molecular Dynamics 425E Phosphorlmager and transferred to ImageQuant v1.2 software (Molecular Dynamics) for analysis. Data were expressed as the differential cleavage between control and sample lanes. Peaks were integrated and differential cleavage calculated as ln(fd)−ln(fc); (fd is the fractional cleavage at any particular bond in the presence of drug and fc is the fractional cleavage of the same bond in the control). Maxam-Gilbert G+A marker lanes were prepared in the usual fashion.
The vast majority of footprint sites are common features in the binding profiles of all six conjugates, with only a small number of sites being footprinted by a subset of the family. Even more unexpectedly, no site is footprinted by only one molecule (in fact, the fewest number of conjugates that bind at any single site is four). The differential cleavage plot provides footprinting profiles at a supramaximal concentration colour-coded for each conjugate which illustrates a striking degree of overlap. Although there is no conspicuous change in footprinting patterns as the number of pyrroles units in each conjugate increases, there are changes in two other features, namely, the apparent binding affinity and the width of the footprinted site. […]

[2] = tested on: calf thymus DNA (CT-DNA); assay: DNA thermal denaturation (melting) studies; format: binding; settings: CT-DNA 100 μM DNAp, compound 20 μM, 37 °C; for Induced ΔTm after incubation 0 hours: pH 7.00, 0 hours; for Induced ΔTm after incubation 4 hours: pH 7.00, 4 hours; for Induced ΔTm after incubation 18 hours: pH 7.00, 18 hours
Summary of the method: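 CT-DNA at 100 μM (50 μM bp) with test compound at 20 μM in pH 7.00 10 mM sodium phosphate/1 mM EDTA, preincubated at 37.0 °C for 0–18 h (up to 72 h for some compounds). Absorbance at 260 nm, heated 1 °C/min over 45–98 °C; Tm from melting-profile midpoint, ΔTm versus free DNA, MeOH-corrected, mean±SD of ≥3.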

SMILES	IC50 ([1]; read-out: DNase IC50 (apparent binding affinity; 50% inhibition of DNase I-mediated cleavage), estimated by eye, site 5′-62CAATACACA70-3′) [nM]	Induced ΔTm after incubation 0 hours [2] [°C]	Induced ΔTm after incubation 4 hours [2] [°C]	Induced ΔTm after incubation 18 hours [2] [°C]	apparent binding affinity of C11 relative to 25 ([1]; C11 approximately 3 μM versus 25 30-100 nM)	Footprint Position D ([1]; MS2 DNA fragment, position D)	Footprint Position G ([1]; MS2 DNA fragment, position G)	Footprint Position K ([1]; MS2 DNA fragment, position K)	Footprint Position L ([1]; MS2 DNA fragment, position L)	Footprint Position M ([1]; MS2 DNA fragment, position M)	IC50 ([1]; estimated by eye from footprint gel, read-out: DNase IC50 (apparent binding affinity)) [nM]
COC(=O)c1cc(NC(=O)c2cc(NC(=O)CCCOc3cc4c(cc3OC)C(=O)N3CCC[C@H]3C=N4)cn2C)cn1C [Compound 23, (11aS) Methyl 4-({4-[4-(7-Methoxy-6-oxo-2,3,5,11a-tetrahydro-5H-pyrrolo[2,1-c][1,4]benzodiazepine-8-yloxy)-butyrylamino]-1-methyl-1H-pyrrole-2-carbonyl}-amino)-1-methyl-1H-pyrrole-2-carboxylate]	100 to 300	13.9	15.0	15.6	–	–	–	–	–	–	–
COC(=O)c1cc(NC(=O)c2cc(NC(=O)c3cc(NC(=O)CCOc4cc5c(cc4OC)C(=O)N4CCC[C@H]4C=N5)cn3C)cn2C)cn1C [Compound C11, (11aS) Methyl 4-{[4-({4-[4-(7-Methoxy-5-oxo-2,3,5,11a-tetrahydro-5H-pyrrolo[2,1-c][1,4]benzodiazepine-8-yloxy)-propionylamino]-1-methyl-1H-pyrrole-2-carbonyl]-amino)-1-methyl-1H-pyrrole-2-carbonyl]-amino}-1-methyl-1H-pyrrole-2-carboxylate]	–	7.9	8.4	9.6	30-100 fold	lack of footprints	lack of footprints	much weaker binding	much weaker binding	lack of footprints	~3000
